Measured values published in patent EP0576227A2, “2'-Deoxy-2',2'-difluoro(2,6,8-substituted) purine nucleosides having anti-viral and anti-cancer activity and intermediates” (ELI LILLY AND COMPANY, priority 1992, dated 1993).

Assays:
[1] = test system: HC1 human colon carcinoma; experiment: HC1 human colon carcinoma xenograft in mice, tumor weight inhibition; format: in vivo, Nu/Nu CD-1 mice; details: 14 day delay
Text: The HC1 human colon carcinoma xenograft was obtained in 1987 from Drs. Peter and Janet Houghton, St. Jude Children's Hospital, Memphis, TN. The tumor is a moderately well-differentiated adenocarcinoma of the ascending colon [British Journal of Cancer, 37, p 213-223 (1987)]. The first passage tumor was stored in liquid nitrogen using standard techniques. The tumors were maintained in serial passage Nu/Nu CD-1 mice (Charles River Laboratories, Portage, MI.).
The study testing the efficacy of these compounds against HC1 human colon carcinoma was initiated by removing a tumor from passage animals and mincing it into 1 to 3 mm square fragments using sterile techniques. Tumor pieces were checked for sterility using both an Antibiotic Medium 1 and Brain Heart Infusion (Difco; Detroit, MI). Tumor pieces were implanted subcutaneously in the auxilary region of recipient mice by trocar. Drug therapy on the appropriate schedule was initiated 14 days after tumor implantation. Drugs were dissolved in Emulphor for all experiments. All animals were weighed at the beginning and end of drug treatment. Food and water were provided ad libitum. On day 14 after the initiation of therapy, two dimensional measurements (width and length) of all tumors were taken using electronic calipers interfaced to a computer. Tumor weights were calculated from these measurements using the following formula: Tumor Weight (mg) = Tumor Length (mm) X Tumor Width (mm)²/2
For all data, the tumor weight was rounded to the nearest tenth of a gram for analysis. No group is included in the analysis for therapeutic activity in which deaths attributable to drug toxicity exceeded 20 percent of the treated group. Compounds are considered active if more than 60 percent inhibition of tumor growth, as determined by tumor weight, is achieved at maximally tolerated doses.
In Table 2 which follows, Column 1 gives the example number of the compound tested; Column 2, the dose level; Column 3, the route administered; Column 4, the dosage schedule; Column 5, the percent inhibition of the tumor; and Column 6; the toxic deaths observed prior to completion of the study.

[2] = test system: Human Cytomegalovirus (HCMV) strain AD169; experiment: Human Cytomegalovirus Test (plaque inhibition in WI-38 cells); format: cell-based; details: read-out: Percent Plaque Inhibition at Specified µg/ml conc.
Procedure: WI-38 cells (American Type Culture Collection; CCL-35) were seeded into 24-well plates in MEM media (GIBCO) supplemented with 10% fetal bovine serum and penicillin/streptomycin. The plates wre incbated at 37°C, in 5 percent carbon dioxide in a humidified incubator for 3 days. Human Cytomegalovirus (HCMV) strain AD169 (American Type Culture Collection) was added to each well (40 plaque forming unites in 100 µl of media) and the virus was allowed to adsorb to the cells for 2 hours at room temperature. The compound of Example 5 was dissolved in 100 percent dimethylsulfoxide at a concentration of 20 mgs/ml and diluted with media to yield final concentrations of 50, 25, 12.5, 6.25, 3.13, 1.6, 0.8, 0.4, 0.2, and 0.1 µg/ml in one set of experiments and 32, 10, 3.2, 1, and 0.32 µg/ml in another set of experiments. Each concentration was done in duplicate. In all experiments, Cytovene (DHPG) was used as a positive control.
The infected cells were incubated for 10 days at 37°C, 5 percent carbon dioxide, in an humidified incubator without changes of media. After incubation, the cells were fixed for at least 15 minutes with 10 percent formalin and rinsed with water. After rinsing, the cells were stained for at least 15 minutes with crystal violet and allowed to dry. HCMV induced plaques were counted with the aid of an iverted microscope. The number of viral plaques appearing in cells treated with each concentration of the Example 5 compound was compared to the number of viral plaques in cells left untreated ("no-drug control") and the percent inhibition of viral plaque formation was calculated. The concentration of the Example 5 compound required to inhibit viral plaque formation by 50 percent was determined using linear regression analysis.

[3] = 05 mg/kg, Intra-Peritoneal 0.5 ml, 1,3,5,7 9
[4] = 10 mg/kg, Intra-Peritoneal 0.5 ml, 1,3,5,7 9
[5] = 20 mg/kg, Intra-Peritoneal 0.5 ml, 1,3,5,7 9
[6] = 40 mg/kg, Intra-Peritoneal 0.5 ml, 1,3,5,7 9
[7] = 80 mg/kg, Intra-Peritoneal 0.5 ml, 1,3,5,7,9

CNc1nc(N)nc2c1ncn2[C@@H]1O[C@H](CO)[C@@H](O)C1(F)F [Example 5, 2-deoxy-2,2-difluoro-D-ribofuranosyl-1-β-(2-amino-6-methylaminopurine)]
Percent Inhibition of Tumor [1, 3]: 92%
Toxic Deaths [1, 3]: 0/8
Percent Inhibition of Tumor [1, 4]: 92%
Toxic Deaths [1, 4]: 0/8
Percent Inhibition of Tumor [1, 5]: 93%
Toxic Deaths [1, 5]: 0/8
Percent Inhibition of Tumor [1, 6]: 94%
Toxic Deaths [1, 6]: 1/8
Percent Inhibition of Tumor [1, 7]: 95%
Toxic Deaths [1, 7]: 0/8
inhibition at 0.2 µg/mL ([2]; Human betaherpesvirus 5, AD169, 240 h, 0.2 µg/ml, WI-38 cells, 10 days): 24%
inhibition at 0.4 µg/mL ([2]; Human betaherpesvirus 5, AD169, 240 h, 0.4 µg/ml, WI-38 cells, 10 days): 17.2%
inhibition at 0.8 µg/mL ([2]; Human betaherpesvirus 5, AD169, 240 h, 0.8 µg/ml, WI-38 cells, 10 days): 38%
inhibition at 1.6 µg/mL ([2]; Human betaherpesvirus 5, AD169, 240 h, 1.6 µg/ml, WI-38 cells, 10 days): 41.4%
inhibition at 6.25 µg/mL ([2]; Human betaherpesvirus 5, AD169, 240 h, 6.25 µg/ml, WI-38 cells, 10 days): 86.2%
inhibition at 12.5 µg/mL ([2]; Human betaherpesvirus 5, AD169, 240 h, 12.5 µg/ml, WI-38 cells, 10 days): 81%
inhibition at 25 µg/mL ([2]; Human betaherpesvirus 5, AD169, 240 h, 25 µg/ml, WI-38 cells, 10 days): 89.6%
inhibition at 3.12 µg/mL ([2]; Human betaherpesvirus 5, AD169, WI-38, 240 h): 62%
